Reference: US5986131A, “RXR selective ligands” (Hoffmann-La Roche Inc., priority 1997, dated 1999)

Tests used:
mouse B cell = assay: Inhibition of LPS-induced mouse B cell proliferation (3H-thymidine incorporation); assay type: cell-based
Method: Single cell suspensions of mouse spleen were set up in culture in flatbottomed 96 well Microtiter trays, 0.2 ml/well of a 2×10^5 /ml cell suspension in IMDM supplemented with 10% foetal calf serum, HEPES, antibiotics and 50 μM 2-mercaptoethanol. The specific B cell mitogen E. coli lipopolysaccharide (DIFCO) (LPS) was added at 50μg/ml. Cultures were incubated at 37° C. in a humidified atmosphere and 5% CO2.
The retinoids to be tested were first titrated in triplicate from 10 nM to 10 μM and left throughout the whole culture period. […] Cyclosporin A (Sandoz AG) was used as a reference compound (from 1 nM to 1 μM).
The cultures were then harvested on glass fiber filters and the radioactivity imcorporated into DNA measured in a β-liquid scintillation counter (Betaplate, Wallac Oy, Turku, Finland).
The results are expressed as % of the response of untreated cultures. […] Retinoids were added to the cultures at the beginning of the culture period.

[1] = test system: retinoic acid X receptors ("RXR"); settings: cited from earlier work
[2] = test system: nuclear retinoic acid receptors ("RAR"); settings: cited from earlier work
human sebaceous cells = assay: Antiproliferative activity on human sebocytes in vitro; assay type: cell-based; settings: Homo sapiens; for IC50: 240 h, first passage cells, 10 days of exposure, read-out: Inhibition of human sebaceous cell proliferation in vitro IC50
Method: Sebaceous cells were isolated from adult human sebaceous glands by a combination of enzymatic and mechanical methods (Doran et al., 1991). The cells were cultured in Iscove's medium containing 10% fetal calf serum and 4 μg/ml dexamethasone on a layer of growth-arrested 3T3 mouse fibroblasts. Cells were plated in medium without the test compound and then given test compound in fresh medium 24-48 hours after the initial plating. The cultures were given fresh medium, containing the test compound, every 48 hours. On the day of harvesting, the cultures were rinsed with 0.03% EDTA in PBS, to remove only the 3T3 fibroblasts. followed by incubation in 0.05% trypsin/0.03% EDTA. The cells were suspended, mixed vigorously to prepare a single cell suspension and counted in a hemocytometer.
Stock solutions of compounds were made up as 10^-2 M solutions in 100% DMSO and stored at -20° C. in the dark. Compounds in solution were brought to room temperature and used by diluting directly into complete medium to the appropriate concentration.
The compounds of Example 12, Example 2, and Example 4 were tested for their effects on inhibiting the proliferation of first passage human sebaceous cells in vitro after 10 days of exposure to drug.

Rhino mouse utricles = assay: Rhino mouse utricle reduction activity; assay type: in vivo, Rhino mice; settings: topical; for Utricle Size: 3 weeks; for Utricle size % Change from Control: ns = not statistically significant, others p<0.05
Method: Compounds were dissolved in 100% acetone and stored at 4° C. for the duration of the experiment under nitrogen. […] One day after the last dose, the mice were sacrificed by CO2 inhalation. […] The epidermis was then separated from the dermis.
The samples were kept in each of the above solutions for 2 hours. The skin samples were removed from the xylene and mounted on glass microscope slides. Image analysis, using the Ultimage image analysis software, was used to determine the mean diameter and area of utricles. Approximately 5 fields per sample were examined, for an average of 150 utricles per mouse measured.

[3] = test system: Hamster Ear Sebaceous Gland; assay: Effect on size of sebaceous glands of Golden Syrian hamsters; assay type: in vivo; parameters: Sebaceous Gland Size: unit not given here; settings: 4 weeks topical dosing
Method: Charles River Golden Syrian male hamsters were given the desired dose in acetone. The compounds were stored at 4° C. protected from light. Fresh solutions were made up weekly.
Hamsters were dosed daily for five days, rested for two days, and dosed again for five days until 20 doses were given. The volume of solution was 50 microliters per ear.
Hamsters were sacrificed by CO2 inhalation, and the ears removed for histological evaluation. One ear was removed and the ventral surface separated from the rest of the ear. A 2 mm punch was removed 5 mm from the tip of the ear and stained in 0.1 % Sudan Black B dissolved in 100% propylene glycol overnight. After destaining, the size of sebaceous glands was quantified with a Donsanto Image Analysis System.
Data are given as the average area of 80-120 sebaceous glands per dose, as percent of the control (solvent-treated) sections.

RXRα = target: T1, RXRα (Homo sapiens, UniProt P19793); assay: RXRα activation (transactivation); assay type: cell-based; settings: Table 1; read-out: Activation ED50, RXRα
T1 sequence (P19793 1-462): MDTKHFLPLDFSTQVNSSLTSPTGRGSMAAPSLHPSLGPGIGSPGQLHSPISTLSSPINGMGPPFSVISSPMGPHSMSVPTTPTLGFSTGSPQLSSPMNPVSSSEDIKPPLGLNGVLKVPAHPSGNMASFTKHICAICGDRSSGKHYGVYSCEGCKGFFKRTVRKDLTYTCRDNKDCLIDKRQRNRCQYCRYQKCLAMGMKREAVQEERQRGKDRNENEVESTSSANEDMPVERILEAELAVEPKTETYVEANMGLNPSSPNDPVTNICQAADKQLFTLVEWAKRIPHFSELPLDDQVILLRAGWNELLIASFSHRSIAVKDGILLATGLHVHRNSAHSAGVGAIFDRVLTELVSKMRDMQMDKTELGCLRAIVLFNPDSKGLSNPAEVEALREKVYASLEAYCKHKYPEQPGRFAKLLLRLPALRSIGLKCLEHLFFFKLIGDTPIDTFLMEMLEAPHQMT
Source text: Methods essentially as described in those publications were used to determine the binding and transactivation properties of retinoids reported in the Examples herein.

HL-60 cells = assay: HL-60 differentiation (NBT reduction); assay type: cell-based, human; settings: in combination with RARα retinoid
Method: Under the influence of retinoids, HL-60 cells (a human myeloid leukemia cell line) differentiate into granulocytes. This differentiation of HL-60 cells into granulocytes is mediated by RARα, and so provides the basis for the use of retinoids to treat leukemia.
Retinoid-induced differentiation of HL-60 cells was assayed by measuring their oxidative burst potential via the reduction of NBT (Nitroblueterstazolium) [Pick et al., J. Reticuloendothelial Soc., 30:581-593 (1981)].
HL-60 cells were maintained in RPMI 1640 medium supplemented with 10% FCS, 2mM L-glutamine, ImM sodium pyruvate, 1% non-essential amino acids, 50 U/ml penicillin and 50 μg/ml streptomycin (=RPMI/FCS).
30,000 cells/[…] of RPMI/FCS were seeded into flat-bottomed microtiter wells. 10 μl of retinoids diluted in complete medium were added at the same time to yield final concentrations betweeen 10^-11 and 10^-6 M (stock solutions of 10^-2 M in ethanol were kep at -20° C. and protected from light). After 3 days, the medium was removed with a multichannel pipette and replaced with 100 μl of NBT solution (1 mg/ml in PBS with 200 nM phorbol myristate acetate (PMA). Following an additional hour incubation at 37° C. the NBT solution was removed and 100 μl of 10% SDS in 0.01 N HCl was added. The amount of the reduced NBT was quantified photometrically at 540 nm using an automated plate reader. The mean of 3 wells was calculated. S.E.M. were between 5 and 10%.

Row | Structure (SMILES) | binding to RXR (in words) [1] | binding to RAR (in words) [2] | IC50 (human sebaceous cells) [nM] | Utricle Size (Rhino mouse utricles; 0.1 μg/day) [μm^2 / utricle] | Utricle size % Change from Control (Rhino mouse utricles; 0.1 μg/day) [%] | Utricle Size (Rhino mouse utricles; 1 μg/day) [μm^2 / utricle] | Utricle size % Change from Control (Rhino mouse utricles; 1 μg/day) [%] | Utricle Size (Rhino mouse utricles; 10 μg/day) [μm^2 / utricle] | Utricle size % Change from Control (Rhino mouse utricles; 10 μg/day) [%] | Utricle Size (Rhino mouse utricles; 100 μg/day) [μm^2 / utricle] | Utricle size % Change from Control (Rhino mouse utricles; 100 μg/day) [%] | other results
1 | CC1=C(/C=C/C(C)=C/C=C/C(C)=C/C(=O)O)C(C)(C)CCC1 [All-trans retinoic acid, all-trans retinoic acid, reference compound] | do not | bind to RARα | – | – | – | – | – | – | – | – | – | inhibition at 0.01 µM (mouse B cell; Mus musculus, B-cell, 96 h, day 4, 10 nM, read-out: inhibition of B cell response): ~30%; IC50 (mouse B cell; alone, FIG. 4, day 3): 1 nM; effect on B cell response (mouse B cell; day 4, 1 nM): not inhibitory any longer and actually induces a minor enhancement of the response
2 | CC1=C(/C=C/C(C)=C\C=C\C(C)=C\C(=O)O)C(C)(C)CCC1 [9-cis-retinoic acid, reference compound] | binds to a group of receptors known as the retinoic acid X receptors | also acts as a ligand for the RAR group of receptors | 100 | 8650 ± 427 | -11 | 6926 ± 497 | -29 | 3540 ± 354 | -64 | 2644 ± 312 | -73 | –
3 | CC1=C(/C=C/C(C)=C/C=C/C(C)=C\C(=O)O)C(C)(C)CCC1 [13-cis-retinoic acid, reference compound] | do not | bind to RARα | 100 | 9187 ± 794 | -6 | 6400 ± 424 | -34 | 3793 ± 368 | -61 | 3132 ± 305 | -68 | Sebaceous Gland Size ([3]; 1 μg/day): 14029 ± 2977; Sebaceous gland size % Change from Control ([3]; 1 μg/day, ns = not statistically significant): -15%; Sebaceous Gland Size ([3]; 10 μg/day): 12965 ± 2029; Sebaceous gland size % Change from Control ([3]; 10 μg/day, ns = not statistically significant): -21%; Sebaceous Gland Size ([3]; 100 μg/day): 10459 ± 1302; Sebaceous gland size % Change from Control ([3]; 100 μg/day): -37%
4 | CC1=C(/C=C/C(C)=C(Cl)\C=C\C(C)=C\C(=O)O)C(C)(C)CCC1 [Example 12, (All-E-)-6-chloro-3,7-dimethyl-9-(2,6,6-trimethyl-1-cyclohexen-1-yl)-2,4,6,8-nonatetraenoic acid] | – | – | 100 | 9104 ± 829 | -7 | 9156 ± 938 | -6 | 7634 ± 485 | -22 | 3596 ± 300 | -63 | –
5 | CC1(C)CCC(C)(C)c2cc(C(=O)Nc3ccc(C(=O)O)cc3)ccc21 [Compound A, reference compound] | – | – | – | – | – | – | – | – | – | – | – | EC50 (RXRα): > 10000 nM; potentiation of HL-60 differentiation (in words) (HL-60 cells): somewhat more pronounced
6 | CC1=C(/C=C/C(C)=C(Br)\C=C\C(C)=C\C(=O)O)C(C)(C)CCC1 [Example 2, (All-E)-6-Bromo-3,7-dimethyl-9-(2,6,6-trimethyl-1-cyclohexen-1-yl)-2,4,6,8-nonatetraenoic acid] | – | – | – | 9535 ± 890 | -2 | 9616 ± 1134 | -1 | 9049 ± 891 | -7 | 5437 ± 615 | -44 | inhibition at 1 µM (human sebaceous cells; 1000 nM, first experiment, read-out: inhibition of sebaceous cell growth): 70%
